Test [1] is filed under the species Rattus norvegicus. Nature of the test: Vasopressor activity in rat. Format: functional.
Test [2] concerns the target Vasopressin V2 receptor (Rattus norvegicus) (UniProt Q00788). As to the kind of experiment: Activity at vasopressin V2 receptor in rat kidney membranes assessed as adenylate cyclase activity. The test is classed as functional, cell membranes. To be noted: Membrane, filed as agonist.
The species entered for test [3] is Rattus norvegicus. As to the kind of experiment: Antidiuretic activity in rat. Format: functional, Urine.
In test [4] the target is Vasopressin V2 receptor (Rattus norvegicus) (UniProt Q00788). As to the kind of experiment: Activity at vasopressin V2 receptor in rat kidney membranes assessed as maximal adenylate cyclase activity relative to AVP. To be noted: Membrane, filed as agonist. The test is classed as functional, cell membranes.
For test [5], the target named is T1, Oxytocin receptor (Rattus norvegicus, UniProt P70536).
T1 sequence (P70536 whole entry): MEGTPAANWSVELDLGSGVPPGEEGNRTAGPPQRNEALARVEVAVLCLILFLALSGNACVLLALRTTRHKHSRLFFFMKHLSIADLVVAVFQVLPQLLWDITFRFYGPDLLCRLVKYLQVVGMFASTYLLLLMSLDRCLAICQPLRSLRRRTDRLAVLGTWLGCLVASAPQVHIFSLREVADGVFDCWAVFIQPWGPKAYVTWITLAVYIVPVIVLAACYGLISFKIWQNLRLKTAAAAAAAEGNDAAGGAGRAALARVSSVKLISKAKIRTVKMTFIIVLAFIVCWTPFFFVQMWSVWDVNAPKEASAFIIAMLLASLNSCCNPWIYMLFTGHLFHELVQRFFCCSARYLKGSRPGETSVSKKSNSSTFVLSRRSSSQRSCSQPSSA
As to the kind of experiment: Displacement of [3H]AVP from rat OT receptor expressed in CHO cells. The test is classed as cell-based. (Loss of bound radioactivity is the signal in a displacement assay; it reports binding, not function.)

The target of test [6] is T2, Oxytocin receptor (Homo sapiens) (UniProt P30559).
T2 sequence (whole entry): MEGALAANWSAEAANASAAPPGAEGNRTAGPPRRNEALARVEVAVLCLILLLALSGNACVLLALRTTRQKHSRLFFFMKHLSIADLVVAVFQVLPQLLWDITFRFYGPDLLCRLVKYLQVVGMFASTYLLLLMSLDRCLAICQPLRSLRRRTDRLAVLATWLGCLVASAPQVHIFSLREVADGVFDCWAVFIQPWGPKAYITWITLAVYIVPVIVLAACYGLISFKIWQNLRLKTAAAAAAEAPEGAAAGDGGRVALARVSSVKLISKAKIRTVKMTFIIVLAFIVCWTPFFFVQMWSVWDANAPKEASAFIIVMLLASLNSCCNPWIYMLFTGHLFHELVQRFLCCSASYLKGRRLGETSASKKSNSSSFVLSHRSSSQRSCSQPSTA
Nature of the test: (§1) Activity at OT receptor assessed as oxytocic activity in absence of magnesium. Format: functional. The settings on record: filed as agonist.

The target of test [7] is Vasopressin V1a receptor (Rattus norvegicus, UniProt P30560). Nature of the test: Displacement of [3H]AVP from vasopressin V1a receptor in rat liver membrane. Format: cell membranes.
The target of test [8] is Vasopressin V2 receptor (Rattus norvegicus, UniProt Q00788). Nature of the test: Displacement of [3H]AVP from vasopressin V2 receptor in rat kidney membranes. The test is classed as cell membranes, Membrane.
Test [9] has as its target T3, Oxytocin receptor (Homo sapiens, UniProt P30559).
T3 sequence (P30559 whole entry): T2 sequence (whole entry)
The description is as §1. To be noted: read-out: pA2 (converted). The test is classed as functional.

For test [10], the target named is T4, Vasopressin V1b receptor (Rattus norvegicus) (UniProt P48974).
T4 sequence (whole entry): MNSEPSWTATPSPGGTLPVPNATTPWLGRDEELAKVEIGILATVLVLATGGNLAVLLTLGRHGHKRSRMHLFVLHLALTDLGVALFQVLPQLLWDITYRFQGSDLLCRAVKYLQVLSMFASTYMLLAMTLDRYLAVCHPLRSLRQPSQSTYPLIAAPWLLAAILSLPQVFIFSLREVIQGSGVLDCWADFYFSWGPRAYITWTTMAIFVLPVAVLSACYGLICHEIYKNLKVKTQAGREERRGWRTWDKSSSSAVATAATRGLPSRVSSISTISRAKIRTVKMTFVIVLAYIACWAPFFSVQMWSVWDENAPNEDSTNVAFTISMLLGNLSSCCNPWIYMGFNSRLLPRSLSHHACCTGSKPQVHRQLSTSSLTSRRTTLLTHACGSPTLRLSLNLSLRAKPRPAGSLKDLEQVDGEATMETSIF
The settings on record: AtT20, filed as agonist.

Molecules are shown by their SMILES. Positions of bridges follow the written chain, without caps; N, C: chain ends. Non-standard residues stand in square brackets, D forms with d. Residues, ends and D or L forms follow the SMILES beside them. Cha = N[C@@H](CC1CCCCC1)C(=O)O; Orn = NCCC[C@H](N)C(=O)O; Dab = NCC[C@H](N)C(=O)O; Dap = NC[C@H](N)C(=O)O; Mpa = O=C(O)CCS

Vasopressin V2 receptor, sequence (Q00788 whole entry): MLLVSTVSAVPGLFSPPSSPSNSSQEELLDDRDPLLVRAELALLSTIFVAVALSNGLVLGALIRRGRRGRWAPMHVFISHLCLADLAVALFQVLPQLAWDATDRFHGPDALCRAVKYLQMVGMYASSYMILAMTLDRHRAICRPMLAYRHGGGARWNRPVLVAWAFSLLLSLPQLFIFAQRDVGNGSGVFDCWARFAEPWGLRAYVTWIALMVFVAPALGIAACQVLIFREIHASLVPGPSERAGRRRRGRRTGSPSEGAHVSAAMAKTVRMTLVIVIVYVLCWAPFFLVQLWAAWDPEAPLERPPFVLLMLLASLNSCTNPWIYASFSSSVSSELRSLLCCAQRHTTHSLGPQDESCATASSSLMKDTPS
Vasopressin V2 receptor (Rattus norvegicus), sequence (Q00788 whole entry): as above
Vasopressin V1a receptor, sequence (P30560 whole entry): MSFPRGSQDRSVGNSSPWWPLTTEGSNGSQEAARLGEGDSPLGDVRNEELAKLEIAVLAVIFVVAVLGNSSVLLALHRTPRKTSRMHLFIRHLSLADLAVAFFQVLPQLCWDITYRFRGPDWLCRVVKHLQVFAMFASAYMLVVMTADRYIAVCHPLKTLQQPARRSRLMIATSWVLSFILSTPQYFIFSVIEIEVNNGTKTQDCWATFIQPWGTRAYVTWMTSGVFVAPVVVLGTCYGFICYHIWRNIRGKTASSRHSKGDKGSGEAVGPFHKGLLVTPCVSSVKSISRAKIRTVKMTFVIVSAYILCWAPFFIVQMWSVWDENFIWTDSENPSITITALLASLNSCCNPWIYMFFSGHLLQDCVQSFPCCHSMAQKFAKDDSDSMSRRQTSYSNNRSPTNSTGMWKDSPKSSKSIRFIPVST

Take `CC(C)C[C@@H]1NC(=O)[C@H](Cc2ccccc2)NC(=O)[C@H](Cc2ccc(O)cc2)NC(=O)CCSSC[C@@H](C(=O)N2CCC[C@H]2C(=O)N[C@@H](CCCCN)C(=O)NCC(N)=O)NC(=O)[C@H](CC(N)=O)NC1=O` ([Mpa]YFLNCPKG-NH2; disulfide 1-6): the Activity in [1] was 0.9 U/mg; in test [3] it was 10.5 U/mg; in [4], 76%; in test [6], 0.054 U/mg. Also, the Kact in test [2] was 196 nM. Further, the Ki in [5] is 0.064 µM (antagonist); in test [7], 3.8 µM (antagonist); in [8], 0.1 µM (antagonist).

Consider `CC(C)C[C@@H]1NC(=O)[C@H](Cc2ccccc2)NC(=O)[C@H](Cc2ccc(O)cc2)NC(=O)CCSSC[C@@H](C(=O)N2CCC[C@H]2C(=O)N[C@@H](CN)C(=O)NCC(N)=O)NC(=O)[C@H](CC(N)=O)NC1=O` ([Mpa]YFLNCP[Dap]G-NH2; disulfide 1-6), for which the Activity in test [1] was 0.05 U/mg; in [3], 0.7 U/mg; in [4], 97%; in test [6], 0.046 U/mg. Also, the Kact in test [2] is 300 nM. Besides, the Ki was 0.134 µM (antagonist) in test [5], 3.3 µM (antagonist) in test [7] and 0.24 µM (antagonist) in test [8].

In the case of `N=C(N)NCCC[C@@H]1NC(=O)[C@H](Cc2ccccc2)NC(=O)[C@H](Cc2ccc(O)cc2)NC(=O)CCSSC[C@@H](C(=O)N2CCC[C@H]2C(=O)N[C@@H](CCN)C(=O)NCC(N)=O)NC(=O)[C@H](CC(N)=O)NC1=O` ([Mpa]YFRNCP[Dab]G-NH2; disulfide 1-6), the Activity in test [1] was 190 U/mg; in test [3] it was 431 U/mg; in test [6], 0.14 U/mg. In addition, the values for the Ki in [5], in [7] and in test [8] were 0.195 µM (antagonist), 0.025 µM (antagonist) and 0.0018 µM (antagonist), respectively.

For the compound `N=C(N)NCCC[C@@H]1NC(=O)[C@H](Cc2ccccc2)NC(=O)[C@H](Cc2ccc(O)cc2)NC(=O)CCSSC[C@@H](C(=O)N2CCC[C@H]2C(=O)N[C@@H](CCCN)C(=O)NCC(N)=O)NC(=O)[C@H](CC(N)=O)NC1=O` ([Mpa]YFRNCP[Orn]G-NH2; disulfide 1-6), the Activity is 173 U/mg in test [1], 823 U/mg in test [3] and 0.06 U/mg in [6]. Further, the values for the Ki in test [5], in test [7] and in test [8] were 0.13 µM (antagonist), 0.067 µM (antagonist) and 0.0031 µM (antagonist), respectively.

Consider `NCCCC[C@H](NC(=O)[C@@H]1CCCN1C(=O)[C@@H]1CSSCCC(=O)N[C@@H](Cc2ccc(O)cc2)C(=O)N[C@@H](Cc2ccccc2)C(=O)N[C@@H](CC2CCCCC2)C(=O)N[C@@H](CC(N)=O)C(=O)N1)C(=O)NCC(N)=O` ([Mpa]YF[Cha]NCPKG-NH2; disulfide 1-6), for which the Activity in test [1] is 0.043 U/mg; in test [3] it was 0.82 U/mg. The Ki in test [5] was 0.59 µM (antagonist); in [7], 9.1 µM (antagonist); in test [8], 0.6 µM (antagonist). In addition, the Kb in test [9] is 0.331 µM (agonist).

Regarding `NC(=O)CNC(=O)[C@H](CCCN=C(N)N)NC(=O)[C@@H]1CCCN1C(=O)[C@@H]1CSSCCC(=O)N[C@@H](Cc2ccc(O)cc2)C(=O)N[C@@H](Cc2ccccc2)C(=O)N[C@@H](CC2CCCCC2)C(=O)N[C@@H](CC(N)=O)C(=O)N1` ([Mpa]YF[Cha]NCPRG-NH2; disulfide 1-6), the Activity in [1] is 0.067 U/mg; in test [3], 133.6 U/mg; in [4] it was 86%. In addition, the figures for the inhibitory constant (Ki) in test [7] and in test [8] were 2.3 µM (antagonist) and 0.0127 µM (antagonist), respectively.

Turning to `NCC[C@H](NC(=O)[C@@H]1CCCN1C(=O)[C@@H]1CSSCCC(=O)N[C@@H](Cc2ccc(O)cc2)C(=O)N[C@@H](Cc2ccccc2)C(=O)N[C@@H](CC2CCCCC2)C(=O)N[C@@H](CC(N)=O)C(=O)N1)C(=O)NCC(N)=O` ([Mpa]YF[Cha]NCP[Dab]G-NH2; disulfide 1-6), the Activity in [1] was 0.18 U/mg; in [3], 1 U/mg; in test [4] it was 75%. The Kact in [2] was 174 nM. In addition, the inhibition constant Ki in [5] is 0.43 µM (antagonist); in [7], 4.4 µM (antagonist); in test [8], 0.45 µM (antagonist). For the same compound, in [9], the Kb is 0.447 µM (agonist).

For the compound `NC[C@H](NC(=O)[C@@H]1CCCN1C(=O)[C@@H]1CSSCCC(=O)N[C@@H](Cc2ccc(O)cc2)C(=O)N[C@@H](Cc2ccccc2)C(=O)N[C@@H](CC2CCCCC2)C(=O)N[C@@H](CC(N)=O)C(=O)N1)C(=O)NCC(N)=O` ([Mpa]YF[Cha]NCP[Dap]G-NH2; disulfide 1-6), the Activity in test [1] worked out at 0.002 U/mg; in test [3], 0.3 U/mg. Moreover, the Ki in test [5] is 1.2 µM (antagonist); in test [7] it was 1.8 µM (antagonist); in test [8], 1.05 µM (antagonist). Moreover, the Kb in [9] is 0.479 µM (agonist).

`NCCC[C@H](NC(=O)[C@@H]1CCCN1C(=O)[C@@H]1CSSCCC(=O)N[C@@H](Cc2ccc(O)cc2)C(=O)N[C@@H](Cc2ccccc2)C(=O)N[C@@H](CC2CCCCC2)C(=O)N[C@@H](CC(N)=O)C(=O)N1)C(=O)NCC(N)=O` ([Mpa]YF[Cha]NCP[Orn]G-NH2; disulfide 1-6): the Activity was found to be 0.22 U/mg in test [1] and 1 U/mg in test [3]. Moreover, the Ki in [5] was 0.55 µM (antagonist); in test [7], 2.9 µM (antagonist); in test [8], 0.45 µM (antagonist). Further, the Kb in test [9] was 0.282 µM (agonist).

`NCCCC[C@H](NC(=O)[C@@H]1CCCN1C(=O)[C@@H]1CSSCCC(=O)N[C@@H](Cc2ccc(O)cc2)C(=O)N[C@@H](Cc2ccccc2)C(=O)N[C@@H](CCCN)C(=O)N[C@@H](CC(N)=O)C(=O)N1)C(=O)NCC(N)=O` ([Mpa]YF[Orn]NCPKG-NH2; disulfide 1-6): the Activity was 0.23 U/mg in test [1], 7.8 U/mg in [3] and 3.1 U/mg in test [6]. Further, the Ki in [5] was 0.022 µM (antagonist); in test [7], 2.8 µM (antagonist); in test [8], 0.051 µM (antagonist).

On to `NCCC[C@@H]1NC(=O)[C@H](Cc2ccccc2)NC(=O)[C@H](Cc2ccc(O)cc2)NC(=O)CCSSC[C@@H](C(=O)N2CCC[C@H]2C(=O)N[C@@H](CCCN)C(=O)NCC(N)=O)NC(=O)[C@H](CC(N)=O)NC1=O` ([Mpa]YF[Orn]NCP[Orn]G-NH2; disulfide 1-6), for which the results for the Activity in test [1], in test [3] and in [6] were 1.9 U/mg, 7.9 U/mg and 2.8 U/mg, respectively. The inhibition constant Ki in test [5] was 0.037 µM (antagonist); in test [7] it was 1.3 µM (antagonist); in [8], 0.076 µM (antagonist).

In the case of `N=C(N)NCCC[C@H](NC(=O)[C@@H]1CCCN1C(=O)[C@@H]1CSSC[C@H](N)C(=O)N[C@@H](Cc2ccc(O)cc2)C(=O)N[C@@H](Cc2ccccc2)C(=O)N[C@@H](CCC(N)=O)C(=O)N[C@@H](CC(N)=O)C(=O)N1)C(=O)NCC(N)=O` [VASOPRESSIN], the Kact in [2] is 0.32 nM; in test [10], 2.3 nM. In addition, in [3], the Activity came to 323 U/mg.

Usually Ki stands for a measure of affinity in units of concentration, obtained from inhibition or displacement. Low values mean tighter binding, high ones weaker binding.

Source of the values: ChEMBL document CHEMBL1141418 (J Med Chem, 2007).
